In series [1] the target is Cytochrome P450 2C9 (Homo sapiens, UniProt P11712). The experiment in a line: Inhibition of CYP2C9 (unknown origin). In kind it is ADME.
In series [2] the target is Cytochrome P450 3A4 (Homo sapiens, UniProt P08684). The experiment in a line: Inhibition of CYP3A4 (unknown origin). In kind it is ADME.
The nature of series [3]: Aqueous solubility of compound. In kind it is physicochemical. As to conditions: aqueous (not further specified).
Series [4] deals with T1, G-protein coupled bile acid receptor 1 (Homo sapiens, UniProt Q8TDU6).
T1 sequence (Q8TDU6 whole entry): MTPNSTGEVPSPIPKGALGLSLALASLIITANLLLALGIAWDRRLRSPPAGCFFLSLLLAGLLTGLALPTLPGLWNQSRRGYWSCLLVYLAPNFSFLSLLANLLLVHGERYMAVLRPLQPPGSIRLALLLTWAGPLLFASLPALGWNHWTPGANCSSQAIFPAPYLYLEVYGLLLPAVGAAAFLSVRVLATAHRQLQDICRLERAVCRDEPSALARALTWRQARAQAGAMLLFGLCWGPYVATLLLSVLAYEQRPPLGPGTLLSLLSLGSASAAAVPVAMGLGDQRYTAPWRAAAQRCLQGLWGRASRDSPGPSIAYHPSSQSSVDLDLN
The experiment in a line: Agonist activity at TGR5 in HEK293 cells. In kind it is functional, cell-based.

Series [5] concerns the target T2, G-protein coupled bile acid receptor 1 (Homo sapiens) (UniProt Q8TDU6).
T2 sequence (whole entry): T1 sequence (Q8TDU6 whole entry)
The experiment in a line: Agonist activity at TGR5 in human NCI-H716 cells assessed as increase in GLP-1 secretion at 5 uM measured for 60 mins by SEAP reporter gene based assay relative to control. To be noted: filed as agonist. In kind it is functional, cell-based.

Series [6] has as its target T3, G-protein coupled bile acid receptor 1 (Mus musculus, UniProt Q80SS6).
T3 sequence (Q80SS6 whole entry): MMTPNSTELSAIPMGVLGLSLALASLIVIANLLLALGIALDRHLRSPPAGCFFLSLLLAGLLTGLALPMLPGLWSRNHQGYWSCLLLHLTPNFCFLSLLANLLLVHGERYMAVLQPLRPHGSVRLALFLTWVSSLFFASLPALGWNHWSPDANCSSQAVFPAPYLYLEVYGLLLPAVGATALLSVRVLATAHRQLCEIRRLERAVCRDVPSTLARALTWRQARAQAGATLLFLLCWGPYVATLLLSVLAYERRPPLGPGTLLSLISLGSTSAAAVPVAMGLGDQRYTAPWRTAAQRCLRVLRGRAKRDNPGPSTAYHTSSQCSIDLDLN
The experiment in a line: Agonist activity at mouse TGR5 receptor. In kind it is functional.

Series [7] concerns the target T1, G-protein coupled bile acid receptor 1. The experiment in a line: Agonist activity at human TGR5. The format is functional.
The nature of series [8]: Clearance in human liver microsomes. The format is ADME, Microsome. To be noted: read-out: CLH.
In series [9] the target is T1, G-protein coupled bile acid receptor 1. The experiment in a line: Agonist activity at TGR5 (unknown origin) expressed in HEK293 cells. The format is functional, cell-based.
Series [10] shares this target. The experiment in a line: Agonist activity at TGR5 (unknown origin) in CHO-K1 cells. The format is functional, cell-based.
For series [11] the target is unchanged. The experiment in a line: Agonist activity at TGR5 (unknown origin). In kind it is functional.
The target of series [12] is CYP450 (isoform not specified) (Homo sapiens, UniProt P04798+P05177+P05181+P08684+P10632+P10635+P11509+P11712+P13584+P20813+P20815+P20853+P24462+P24903+P33260+P33261+P51589+P78329+P98187+Q02928+Q08477+Q16678+Q16696+Q5TCH4+Q6VVX0+Q7Z449+Q8TAV3+Q96SQ9+Q9HB55). The experiment in a line: Inhibition of CYP450 (unknown origin). The format is ADME, protein assay.
The target in series [13] is T1, G-protein coupled bile acid receptor 1. Nature of the series: Agonist activity at TGR5 receptor in human NCI-H716 cells assessed as activation of intracellular cAMP production incubated for 1 hr by TR-FRET assay. The format is functional, cell-based.
Series [14] deals with T3, G-protein coupled bile acid receptor 1. The experiment in a line: Agonist activity at mouse TGR5 receptor expressed in HEK293 cells assessed as activation of intracellular cAMP production incubated for 2 hrs by luciferase reporter gene assay. In kind it is functional, cell-based.
Series [15] can be described thus: Oral bioavailability in mouse at 2 mg/kg. As to conditions: in vivo. The format is ADME, organism-based.

≈ marks a conversion by molar mass, not a printed value.

Sequence of Cytochrome P450 3A4 (P08684 whole entry): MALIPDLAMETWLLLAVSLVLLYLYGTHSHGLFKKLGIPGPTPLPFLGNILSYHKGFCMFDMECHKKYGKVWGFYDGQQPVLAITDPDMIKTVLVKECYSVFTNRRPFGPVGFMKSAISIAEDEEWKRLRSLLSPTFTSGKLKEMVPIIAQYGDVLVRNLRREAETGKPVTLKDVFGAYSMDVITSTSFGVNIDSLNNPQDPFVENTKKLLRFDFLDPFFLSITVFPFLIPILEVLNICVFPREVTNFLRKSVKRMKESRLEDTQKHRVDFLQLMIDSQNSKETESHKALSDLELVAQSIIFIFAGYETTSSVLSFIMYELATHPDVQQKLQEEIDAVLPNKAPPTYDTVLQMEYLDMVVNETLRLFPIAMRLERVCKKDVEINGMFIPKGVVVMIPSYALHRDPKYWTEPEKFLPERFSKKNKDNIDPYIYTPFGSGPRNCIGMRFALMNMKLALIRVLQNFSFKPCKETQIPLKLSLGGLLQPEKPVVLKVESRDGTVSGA
Sequence of Cytochrome P450 2C9 (P11712 whole entry): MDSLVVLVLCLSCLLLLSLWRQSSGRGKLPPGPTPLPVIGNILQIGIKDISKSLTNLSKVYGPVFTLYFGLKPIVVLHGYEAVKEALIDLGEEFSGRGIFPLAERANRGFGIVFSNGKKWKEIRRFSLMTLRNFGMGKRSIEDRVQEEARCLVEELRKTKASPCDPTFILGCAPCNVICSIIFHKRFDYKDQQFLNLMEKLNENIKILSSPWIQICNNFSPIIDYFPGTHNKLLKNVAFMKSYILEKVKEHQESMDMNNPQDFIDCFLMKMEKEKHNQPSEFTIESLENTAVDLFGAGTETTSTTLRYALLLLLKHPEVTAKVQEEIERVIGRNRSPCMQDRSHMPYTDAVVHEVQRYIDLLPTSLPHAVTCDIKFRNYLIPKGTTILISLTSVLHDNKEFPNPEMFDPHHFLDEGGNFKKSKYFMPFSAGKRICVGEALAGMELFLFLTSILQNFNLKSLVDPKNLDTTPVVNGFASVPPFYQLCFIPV

Take `O=C(c1cccnc1Oc1cccc(C(F)(F)F)c1)N1CCCc2ccccc21`: the figures for the IC50 in series [1] and in series [2] were 2200 nM and 5900 nM, respectively. The same compound had a solubility in series [3] of 1 µg/mL (≈ 2.51 µM).

On to `CC(C)[C@@H](CO)NC(=O)CC[C@@H](C)[C@H]1CC[C@H]2[C@@H]3[C@@H](OC=O)C[C@@H]4C[C@H](OC=O)CC[C@]4(C)[C@H]3CC[C@]12C`, for which, in series [4], the EC50 turned out to be 110 nM.

`CC(c1cc(C(F)(F)F)cc(C(F)(F)F)c1)N1CCOc2nccc(-c3ccccc3)c2C1` (stereo unspecified): the Activity in series [5] worked out at 111%.

`CN(Cc1cnccc1-c1ccccc1F)C(C#N)c1cc(C(F)(F)F)cc(C(F)(F)F)c1` (stereo unspecified): the EC50 came to 150 nM in [6] and 35 nM in series [7].

With `O=C(c1cccnc1Oc1cc(Cl)ccc1Cl)N1CCN(C2COC2)c2ccccc21`, in series [8], the CLint scaled came out at 578 mL/min/kg. Moreover, the EC50 in series [6] came to 520 nM; in [9], 10 nM. Moreover, the IC50 was found to be 8200 nM in series [1] and 300 nM in series [2].

As to `CC1(C)CC[C@]2(C(=O)O)CC[C@]3(C)C(=CC[C@@H]4[C@@]5(C)C[C@@H](O)[C@H](O)C(C)(C)[C@@H]5CC[C@]43C)[C@@H]2C1` [MASLINIC ACID], a half-maximal response in [10] (EC50) required 3700 nM.

Compound `Fc1cccc(F)c1-c1ccncc1CN1C(c2ccco2)=NO[C@@H]1c1cc(C(F)(F)F)cc(C(F)(F)F)c1Cl` had an EC50 in series [6] of 249 nM.

As for `O=C(Nc1nnn[nH]1)c1cc(Cl)c(Oc2ncccc2C(=O)N2CCN(C3CC3)c3ccccc32)cc1Cl`, in series [8], the CLint scaled worked out at 56 mL/min/kg. Also, the IC50 in [1] and in series [2] was more than 10000 nM each time. The same compound had an EC50 in [9] of 70 nM.

Compound `CO[C@H]1C[C@H]2[C@@H]([C@H](OC)C[C@@H]3C[C@H](O)CC[C@@]32C)[C@@H]2CC[C@H]([C@H](C)CCC(=O)N3CCCC3)[C@@]12C` displayed an EC50 in series [11] of 150 nM.

As for `C[C@H]1[C@H](C)CC[C@]2(C(=O)O)CC[C@]3(C)C(=CC[C@@H]4[C@@]5(C)C[C@@H](O)[C@H](O)C(C)(C)[C@@H]5CC[C@]43C)[C@H]12` [COROSOLIC ACID], a half-maximal response in series [10] (EC50) required 500 nM.

On to `COC(=O)NCc1cccc([C@H]2O[C@H](CC(=O)NCc3ccccc3F)C(=O)N(CC(C)(C)COC(C)=O)c3ccc(Cl)cc32)c1`, for which the Activity in series [5] was found to be 165%.

In series [12], `CCc1onc(-c2ccccc2)c1C(=O)N(C)c1ccc(Cl)cc1` showed an IC50 of 251 nM.

For the compound `COc1ccc(S(=O)(=O)N2CCCN(S(=O)(=O)c3ccc(OC)c(OC)c3)CC2)cc1OC` [SB-756050], the EC50 in [13] was found to be 1300 nM.

For the compound `CN(CC[N+](C)(C)C)C(=O)CCc1cc(Cl)c(Oc2ccsc2C(=O)N2CCSc3ccccc32)cc1Cl`, the EC50 in series [14] was 74 nM.

`COc1cc(-n2c(N(C)c3ccc(OC)c(OC)c3)cnc2SCc2c(F)cc(OCCCS(=O)(=O)O)cc2F)ccc1F`: the EC50 in [6] was determined as 0.5 nM.

Compound `Cc1cc(/C(C[C@H](c2ccc(C3CCC(C(=O)O)CC3)cc2)c2ccccc2C)=N\O)ccn1` (stereo partly specified) registered a bioavailability in series [15] of 100%.
